In brackets after ≈: the same amount, converted by molar mass. Where a name gives a salt, the structure may show the parent alone.
What follows are molecules tested on Mycobacterium tuberculosis H37Rv (assay: Minimum inhibitory concentration (MIC90) against Mycobacterium tuberculosis H37Rv, Middlebrook 7H9, 96-well plate, 15 days). Conditions: 360 h; Mycobacterium tuberculosis H37Rv, 15 days of incubation, 90% inhibition of growth, visual reading; read-out: MIC90.
Type: cell-based

| Molecule | MIC90 |
| --- | --- |
| [2H]C([2H])(c1c(O)ccc2oc3c(c12)C(=O)OCc1cc(O)ccc1-3)N1CCC(c2cccc(Cl)c2)CC1 [YF006, 8-((4-(3-Chlorophenyl)piperidin-1-yl)methyl-d2)-3,9-dihydroxybenzo[5,6]oxepino[4,3-b]benzofuran-7(5H)-one] | 0.125 µg/mL (≈ 0.254 µM) |
| [2H]C1([2H])CC(c2cccc(Cl)c2)CC([2H])([2H])N1Cc1c(O)ccc2oc3c(c12)C(=O)OCc1cc(O)ccc1-3 [YF007, 8-((4-(3-Chlorophenyl)piperidin-1-yl-2,2,6,6-d4)methyl)-3,9-dihydroxybenzo[5,6]oxepino[4,3-b]benzofuran-7(5H)-one] | 0.125 µg/mL (≈ 0.253 µM) |
| [2H]C1([2H])CC(c2cccc(Cl)c2)CC([2H])([2H])N1C([2H])([2H])c1c(O)ccc2oc3c(c12)C(=O)OCc1cc(O)ccc1-3 [YF008, 8-((4-(3-Chlorophenyl)piperidin-1-yl-2,2,6,6-d4)methyl-d2)-3,9-dihydroxybenzo[5,6]oxepino[4,3-b]benzofuran-7(5H)-one] | 0.0625 µg/mL (≈ 0.126 µM) |
| [2H]c1c(O)c(C([2H])([2H])N2C([2H])([2H])CC(c3cccc(Cl)c3)CC2([2H])[2H])c2c3c(oc2c1[2H])-c1ccc(O)cc1C([2H])([2H])OC3=O [YF009, 8-((4-(3-Chlorophenyl)piperidin-1-yl-2,2,6,6-d4)methyl-d2)-3,9-dihydroxybenzo[5,6]oxepino[4,3-b]benzofuran-7(5H)-one-5,5,10,11-d4] | 0.125 µg/mL (≈ 0.25 µM) |
| [2H]C([2H])(CC)C(=O)C1([2H])CCN(Cc2c(O)ccc3oc4c(c23)C(=O)OCc2cc(O)ccc2-4)CC1 [YF011, 8-((4-(Butanoyl-2,2-d2)piperidin-1-yl-4-d)methyl)-3,9-dihydroxybenzo[5,6]oxepino[4,3-b]benzofuran-7(5H)-one] | 0.0625 µg/mL (≈ 0.138 µM) |
| [2H]C1([2H])CC(C(=O)CCC)CC([2H])([2H])N1C([2H])([2H])c1c(O)ccc2oc3c(c12)C(=O)OCc1cc(O)ccc1-3 [YF012, 8-((4-Butanoylpiperidin-1-yl-2,2,6,6-d4)-methyl-d2)-3,9-dihydroxybenzo[5,6]oxepino[4,3-b]benzofuran-7(5H)-one] | 0.0312 µg/mL (≈ 0.0686 µM) |
| [2H]c1c(O)c(C([2H])([2H])N2C([2H])([2H])CC(C(=O)CCC)CC2([2H])[2H])c2c3c(oc2c1[2H])-c1ccc(O)cc1C([2H])([2H])OC3=O [YF013, 8-((4-Butanoylpiperidin-1-yl-2,2,6,6-d4)-methyl-d2)-3,9-dihydroxybenzo[5,6]oxepino[4,3-b]benzofuran-7(5H)-one-5,5,10,11-d4] | 0.0625 µg/mL (≈ 0.136 µM) |
| [2H]C([2H])(c1c(O)ccc2oc3c(c12)C(=O)OCc1cc(O)ccc1-3)N1CCC(C(O)CCC)CC1 (centres unmarked) [YF015, 3,9-Dihydroxy-8-((4-(1-hydroxybutyl)piperidin-1-yl)methyl-d2)benzo[5,6]oxepino[4,3-b]benzofuran-7(5H)-one] | 0.0156 µg/mL (≈ 0.0344 µM) |
| [2H]C(O)(CCC)C1CCN(C([2H])([2H])c2c(O)ccc3oc4c(c23)C(=O)OCc2cc(O)ccc2-4)CC1 (centres unmarked) [YF016, 3,9-Dihydroxy-8-((4-(1-hydroxybutyl-1-d)piperidin-1-yl)methyl-d2)benzo[5,6]oxepino[4,3-b]benzofuran-7(5H)-one] | 0.0156 µg/mL (≈ 0.0343 µM) |
| [2H]C([2H])(CC)C(O)C1([2H])CCN(Cc2c(O)ccc3oc4c(c23)C(=O)OCc2cc(O)ccc2-4)CC1 (centres unmarked) [YF017, 3,9-Dihydroxy-8-((4-(1-hydroxybutyl-2,2-d2)piperidin-1-yl-4-d)methyl)benzo[5,6]oxepino[4,3-b]benzofuran-7(5H)-one] | 0.0156 µg/mL (≈ 0.0343 µM) |
| [2H]C([2H])(CC)C([2H])(O)C1([2H])CCN(Cc2c(O)ccc3oc4c(c23)C(=O)OCc2cc(O)ccc2-4)CC1 (centres unmarked) [YF018, 3,9-Dihydroxy-8-((4-(1-hydroxybutyl-1,2,2-d3)piperidin-1-yl-4-d)methyl)benzo[5,6]oxepino[4,3-b]benzofuran-7(5H)-one] | 0.0156 µg/mL (≈ 0.0342 µM) |

Same assay, conditions: H37RV, 360 h

| Molecule | MIC90 |
| --- | --- |
| [2H]c1c(O)c(C([2H])([2H])N2C([2H])([2H])CC(C(O)CCC)CC2([2H])[2H])c2c3c(oc2c1[2H])-c1ccc(O)cc1C([2H])([2H])OC3=O (centres unmarked) [YF021, 3,9-Dihydroxy-8-((4-(1-hydroxybutyl)piperidin-2,2,6,6-d4-1-yl)methyl-d2)benzo[5,6]oxepino[4,3-b]benzofuran-7(5H)-one-5,5,10,11-d4] | 0.0156 µg/mL (≈ 0.0338 µM) |
| [2H]c1c(O)c(C([2H])([2H])N2C([2H])([2H])CC(C([2H])(O)CCC)CC2([2H])[2H])c2c3c(oc2c1[2H])-c1ccc(O)cc1C([2H])([2H])OC3=O (centres unmarked) [YF022, 3,9-Dihydroxy-8-((4-(1-hydroxybutyl-1-d)piperidin-2,2,6,6-d4-1-yl)methyl-d2)benzo[5,6]oxepino[4,3-b]benzofuran-7(5H)-one-5,5,10,11-d4] | 0.0156 µg/mL (≈ 0.0337 µM) |
| [2H]c1c(O)c(C([2H])([2H])N2CCC([2H])(C(O)C([2H])([2H])CC)CC2)c2c3c(oc2c1[2H])-c1ccc(O)cc1C([2H])([2H])OC3=O (centres unmarked) [YF023, 3,9-Dihydroxy-8-((4-(1-hydroxybutyl-2,2-d2)piperidin-1-yl-1-d)methyl-d2)benzo[5,6]oxepino[4,3-b]benzofuran-7(5H)-one-5,5,10,11-d4] | 0.0156 µg/mL (≈ 0.0339 µM) |
| [2H]c1c(O)c(C([2H])([2H])N2CCC([2H])(C([2H])(O)C([2H])([2H])CC)CC2)c2c3c(oc2c1[2H])-c1ccc(O)cc1C([2H])([2H])OC3=O (centres unmarked) [YF024, 3,9-Dihydroxy-8-((4-(1-hydroxybutyl-1,2,2-d3)piperidin-1-yl-1-d)methyl-d2)benzo[5,6]oxepino[4,3-b]benzofuran-7(5H)-one-5,5,10,11-d4] | 0.0156 µg/mL (≈ 0.0338 µM) |

Same assay, conditions: Mycobacterium tuberculosis H37Rv, 15 days of incubation, 90% inhibition of growth, visual reading

| Molecule | MIC90 |
| --- | --- |
| 3,9-Dihydroxy-8-((4-(1-hydroxybutyl-1-d)piperidin-1-yl)methyl-d2)benzo[5,6]oxepino[4,3-b]benzofuran-7(5H)-one hydrochloride [YF040] | 0.0156 µg/mL |
| 8-((4-(Butanoyl-2,2-d2)piperidin-1-yl-4-d)methyl-d2)-3,9-dihydroxybenzo[5,6]oxepino[4,3-b]benzofuran-7(5H)-one-5,5,10,11-d4 hydrochloride [YF038] | 0.0625 µg/mL |
| 8-((4-(Butanoyl-2,2-d2)piperidin-1-yl-4-d)methyl-d2)-3,9-dihydroxybenzo[5,6]oxepino[4,3-b]benzofuran-7(5H)-one-5,5, 10,11-d4 [YF014] | 0.0625 µg/mL |
| [2H]C1([2H])CC(C(O)CCC)CC([2H])([2H])N1C([2H])([2H])c1c(O)ccc2oc3c(c12)C(=O)OCc1cc(O)ccc1-3 (centres unmarked) [YF019, 3,9-Dihydroxy-8-((4-(1-hydroxybutyl)piperidin-2,2,6,6-d4-1-yl)methyl)benzo[5,6]oxepino[4,3-b]benzofuran-7(5H)-one] | 0.0078 µg/mL (≈ 0.017 µM) |

Same assay, conditions: Mycobacterium tuberculosis, H37RV, 360 h, Mycobacterium tuberculosis H37Rv, 15 days of incubation, 90% inhibition of growth, visual reading

| Molecule | MIC90 |
| --- | --- |
| [2H]C([2H])(c1c(O)cc(C(C)(C)C)c2oc3c4ccc(O)cc4oc(=O)c3c12)N1CCCCC1 [YF001, 10-(tert-Butyl)-3,8-dihydroxy-7-(piperidin-1-ylmethyl-d2)-6H-benzofuran[3,2-c]chromen-6-one] | ≤ 0.0039 µg/mL |
| [2H]C1([2H])CCCC([2H])([2H])N1Cc1c(O)cc(C(C)(C)C)c2oc3c4ccc(O)cc4oc(=O)c3c12 [YF002, 10-(tert-Butyl)-3,8-dihydroxy-7-((piperidin-1-yl-2,2,6,6-d4)methyl)-6H-benzofuran[3,2-c]chromen-6-one] | ≤ 0.0039 µg/mL |
| [2H]C1([2H])CCCC([2H])([2H])N1C([2H])([2H])c1c(O)cc(C(C)(C)C)c2oc3c4ccc(O)cc4oc(=O)c3c12 [YF003, 10-(tert-Butyl)-3,8-dihydroxy-7-((piperidin-1-yl-2,2,6,6-d4)methyl-d2)-6H-benzofuran[3,2-c]chromen-6-one] | ≤ 0.0039 µg/mL |
| [2H]C1([2H])N(Cc2c(O)cc(C(C)(C)C)c3oc4c5ccc(O)cc5oc(=O)c4c23)C([2H])([2H])C([2H])([2H])C([2H])([2H])C1([2H])[2H] [YF004, 10-(tert-Butyl)-3,8-dihydroxy-7-((piperidin-1-yl-d10)methyl)-6H-benzofuran[3,2-c]chromen-6-one] | ≤ 0.0039 µg/mL |
| [2H]C([2H])(c1c(O)cc(C(C)(C)C)c2oc3c4ccc(O)cc4oc(=O)c3c12)N1C([2H])([2H])C([2H])([2H])C([2H])([2H])C([2H])([2H])C1([2H])[2H] [YF005, 10-(tert-Butyl)-3,8-dihydroxy-7-((piperidin-1-yl-d10)methyl-d2)-6H-benzofuran[3,2-c]chromen-6-one] | ≤ 0.0039 µg/mL |
| [2H]C([2H])(c1c(O)ccc2oc3c(c12)C(=O)OCc1cc(O)ccc1-3)N1CCC(C(=O)CCC)CC1 [YF010, 8-((4-Butanoyl)piperidin-1-ylmethyl-d2)-3,9-dihydroxybenzo[5,6]oxepino[4,3-b]benzofuran-7(5H)-one] | 0.0625 µg/mL (≈ 0.138 µM) |
| [2H]C(O)(CCC)C1CC([2H])([2H])N(C([2H])([2H])c2c(O)ccc3oc4c(c23)C(=O)OCc2cc(O)ccc2-4)C([2H])([2H])C1 (centres unmarked) [YF020, 3,9-Dihydroxy-8-((4-(1-hydroxybutyl-1-d)piperidin-2,2,6,6-d4-1-yl)methyl)benzo[5,6]oxepino[4,3-b]benzofuran-7(5H)-one] | 0.0156 µg/mL (≈ 0.034 µM) |
| [2H]C1([2H])CC(C(O)CCC)CC([2H])([2H])N1C([2H])([2H])c1c(O)ccc2oc3c(c12)C(=O)OCc1cc(O)ccc1-3 (centres unmarked) [YF043, 3,9-Dihydroxy-8-((4-(1-hydroxybutyl)piperidin-2,2,6,6-d4-1-yl)methyl)benzo[5,6]oxepino[4,3-b]benzofuran-7(5H)-one hydrochloride] | 0.0156 µg/mL |
| [2H]c1c(O)c(C([2H])([2H])N2C([2H])([2H])CC(C(O)CCC)CC2([2H])[2H])c2c3c(oc2c1[2H])-c1ccc(O)cc1C([2H])([2H])OC3=O (centres unmarked) [YF045, 3,9-Dihydroxy-8-((4-(1-hydroxybutyl)piperidin-2,2,6,6-d4-1-yl)methyl-d2)benzo[5,6]oxepino[4,3-b]benzofuran-7(5H)-one-5,5,10,11-d4 hydrochloride] | 0.0156 µg/mL |
| [2H]c1c(O)c(C([2H])([2H])N2C([2H])([2H])CC(C([2H])(O)CCC)CC2([2H])[2H])c2c3c(oc2c1[2H])-c1ccc(O)cc1C([2H])([2H])OC3=O (centres unmarked) [YF046, 3,9-Dihydroxy-8-((4-(1-hydroxybutyl-1-d)piperidin-2,2,6,6-d4-1-yl)methyl-d2)benzo[5,6]oxepino[4,3-b]benzofuran-7(5H)-one-5,5,10,11-d4 hydrochloride] | 0.0156 µg/mL |

Reference: EP4775586A1, “DEUTERATED TETRACYCLIC DERIVATIVE AND USE THEREOF” (priority 2023, dated 2025)
